Experimental data published in ChEMBL document CHEMBL3885881, “DrugMatrix”.

Organism: Rattus norvegicus
Experiment: DrugMatrix - Regimen: Daily Repeat
Assay type: toxicity, organism-based, Sprague-Dawley
Design: regimen Daily Repeat, gender Male, age 6-8 weeks
Conditions: in vivo, po, route oral GAVAGE, vehicle .5 % CMC; for ABSOLUTE BASOPHIL / ABSOLUTE EOSINOPHIL / ABSOLUTE LYMPHOCYTE / ABSOLUTE MONOCYTE / ABSOLUTE SEGMENTED NEUTROPHIL / BASOPHIL / EOSINOPHIL / ERYTHROCYTE COUNT / HEMATOCRIT / HEMOGLOBIN / LEUKOCYTE COUNT / LYMPHOCYTE / MEAN CORPUSCULAR HEMOGLOBIN / MEAN CORPUSCULAR HEMOGLOBIN CONCENTRATION / MEAN CORPUSCULAR VOLUME / MONOCYTE / NEUTROPHIL / NUCLEATED RED BLOOD CELLS / PLATELET COUNT: tissue Blood; for ALANINE AMINOTRANSFERASE / ALBUMIN / ALKALINE PHOSPHATASE / ASPARTATE AMINOTRANSFERASE / BLOOD UREA NITROGEN / CARBON DIOXIDE / CHLORIDE / CHOLESTEROL / CREATINE PHOSPHOKINASE / CREATININE / GLUCOSE / LACTATE DEHYDROGENASE / LIPASE / PHOSPHORUS / POTASSIUM / SODIUM / TOTAL BILIRUBIN / TOTAL PROTEIN / URIC ACID: tissue Plasma
[1] = 0.0001 mg/kg, 72 h, dose level Low, time 3 day
[2] = 0.0001 mg/kg, 120 h, dose level Low, time 5 day
[3] = […], 72 h, dose 0.043 mg/Kg, dose level High, time 3 day
[4] = […], 120 h, dose 0.043 mg/Kg, dose level High, time 5 day

`C=C1/C(=C\C=C2/CCC[C@]3(C)[C@@H]([C@H](C)CCCC(C)C)CC[C@@H]23)C[C@@H](O)C[C@@H]1O` [ALFACALCIDOL] was tested, and the “ABSOLUTE BASOPHIL” value [1] was 0 CELLS/uL, the “ABSOLUTE EOSINOPHIL” value [1] was 140 CELLS/uL and the “ABSOLUTE LYMPHOCYTE” value [1] was 12178.67 CELLS/uL. The “ABSOLUTE MONOCYTE” value [1] was 352 CELLS/uL, the “ABSOLUTE SEGMENTED NEUTROPHIL” value [1] was 1262.67 CELLS/uL and the BASOPHIL [1] was 0%. The EOSINOPHIL [1] was 1%, the “ERYTHROCYTE COUNT” value [1] was 6.05 x10E6/uL and the HEMATOCRIT [1] was 38.07%. For the same molecule, the HEMOGLOBIN [1] was 14.23 G/DL, the “LEUKOCYTE COUNT” value [1] was 13.93 x10E3/uL and the LYMPHOCYTE [1] was 87.33%. The “MEAN CORPUSCULAR HEMOGLOBIN” value [1] was 23.6 pg, the “MEAN CORPUSCULAR HEMOGLOBIN CONCENTRATION” value [1] was 37.4 G/DL and the “MEAN CORPUSCULAR VOLUME” value [1] was 63.03 fL. For the same molecule, the MONOCYTE [1] was 2.67%, the NEUTROPHIL [1] was 9% and the “NUCLEATED RED BLOOD CELLS” value [1] was 0.33 /100WBC. The “PLATELET COUNT” value [1] was 1202.33 x10E3/uL, the “ALANINE AMINOTRANSFERASE” value [1] was 48.33 u/L and the ALBUMIN [1] was 4.17 G/DL. The “ALKALINE PHOSPHATASE” value [1] was 299.33 u/L, the “ASPARTATE AMINOTRANSFERASE” value [1] was 81 u/L and the “BLOOD UREA NITROGEN” value [1] was 17 mg/dL. The “CARBON DIOXIDE” value [1] was 24.67 mmol/L, the CHLORIDE [1] was 103.5 MEQ/L and the CHOLESTEROL [1] was 65 mg/dL. For the same molecule, the “CREATINE PHOSPHOKINASE” value [1] was 332 u/L, the CREATININE [1] was 0.2 mg/dL and the GLUCOSE [1] was 178.67 mg/dL. The “LACTATE DEHYDROGENASE” value [1] was 142.33 u/L, the LIPASE [1] was 9.33 u/L and the PHOSPHORUS [1] was 12.17 mg/dL. The POTASSIUM [1] was 6.03 MEQ/L, the SODIUM [1] was 146.55 MEQ/L and the “TOTAL BILIRUBIN” value [1] was 0.23 mg/dL. The “TOTAL PROTEIN” value [1] was 5.83 G/DL, the “URIC ACID” value [1] was 1.77 mg/dL and the “ABSOLUTE BASOPHIL” value [2] was 0 CELLS/uL. The “ABSOLUTE EOSINOPHIL” value [2] was 164 CELLS/uL, the “ABSOLUTE LYMPHOCYTE” value [2] was 10288.67 CELLS/uL and the “ABSOLUTE MONOCYTE” value [2] was 193 CELLS/uL. The “ABSOLUTE SEGMENTED NEUTROPHIL” value [2] was 1121 CELLS/uL, the BASOPHIL [2] was 0% and the EOSINOPHIL [2] was 1.33%. For the same molecule, the “ERYTHROCYTE COUNT” value [2] was 5.95 x10E6/uL, the HEMATOCRIT [2] was 36.97% and the HEMOGLOBIN [2] was 13.63 G/DL. For the same molecule, the “LEUKOCYTE COUNT” value [2] was 11.77 x10E3/uL, the LYMPHOCYTE [2] was 87.33% and the “MEAN CORPUSCULAR HEMOGLOBIN” value [2] was 22.9 pg. The “MEAN CORPUSCULAR HEMOGLOBIN CONCENTRATION” value [2] was 36.9 G/DL, the “MEAN CORPUSCULAR VOLUME” value [2] was 62.07 fL and the MONOCYTE [2] was 1.67%. For the same molecule, the NEUTROPHIL [2] was 9.67%, the “NUCLEATED RED BLOOD CELLS” value [2] was 0 /100WBC and the “PLATELET COUNT” value [2] was 1179 x10E3/uL. For the same molecule, the “ALANINE AMINOTRANSFERASE” value [2] was 40.33 u/L, the ALBUMIN [2] was 4.23 G/DL and the “ALKALINE PHOSPHATASE” value [2] was 369.33 u/L. For the same molecule, the “ASPARTATE AMINOTRANSFERASE” value [2] was 94.33 u/L, the “BLOOD UREA NITROGEN” value [2] was 21 mg/dL and the “CARBON DIOXIDE” value [2] was 26.67 mmol/L. The CHLORIDE [2] was 105 MEQ/L, the CHOLESTEROL [2] was 57.33 mg/dL and the “CREATINE PHOSPHOKINASE” value [2] was 399 u/L. The CREATININE [2] was 0.21 mg/dL, the GLUCOSE [2] was 158.33 mg/dL and the “LACTATE DEHYDROGENASE” value [2] was 716.33 u/L. For the same molecule, the LIPASE [2] was 8.33 u/L, the PHOSPHORUS [2] was 11.8 mg/dL and the POTASSIUM [2] was 5.72 MEQ/L. For the same molecule, the SODIUM [2] was 145.1 MEQ/L, the “TOTAL BILIRUBIN” value [2] was 0.13 mg/dL and the “TOTAL PROTEIN” value [2] was 5.9 G/DL. The “URIC ACID” value [2] was 1.3 mg/dL, the “ABSOLUTE BASOPHIL” value [3] was 0 CELLS/uL and the “ABSOLUTE EOSINOPHIL” value [3] was 333 CELLS/uL. For the same molecule, the “ABSOLUTE LYMPHOCYTE” value [3] was 10082 CELLS/uL, the “ABSOLUTE MONOCYTE” value [3] was 537.33 CELLS/uL and the “ABSOLUTE SEGMENTED NEUTROPHIL” value [3] was 2481 CELLS/uL. For the same molecule, the BASOPHIL [3] was 0%, the EOSINOPHIL [3] was 2.33% and the “ERYTHROCYTE COUNT” value [3] was 6 x10E6/uL. For the same molecule, the HEMATOCRIT [3] was 36.53%, the HEMOGLOBIN [3] was 13.9 G/DL and the “LEUKOCYTE COUNT” value [3] was 13.43 x10E3/uL. The LYMPHOCYTE [3] was 74%, the “MEAN CORPUSCULAR HEMOGLOBIN” value [3] was 23.2 pg and the “MEAN CORPUSCULAR HEMOGLOBIN CONCENTRATION” value [3] was 38.07 G/DL. The “MEAN CORPUSCULAR VOLUME” value [3] was 60.97 fL, the MONOCYTE [3] was 4% and the NEUTROPHIL [3] was 19.67%. The “NUCLEATED RED BLOOD CELLS” value [3] was 0.33 /100WBC, the “PLATELET COUNT” value [3] was 1182 x10E3/uL and the “ALANINE AMINOTRANSFERASE” value [3] was 54.33 u/L. The ALBUMIN [3] was 3.93 G/DL, the “ALKALINE PHOSPHATASE” value [3] was 234.67 u/L and the “ASPARTATE AMINOTRANSFERASE” value [3] was 99 u/L. For the same molecule, the “BLOOD UREA NITROGEN” value [3] was 27.67 mg/dL, the “CARBON DIOXIDE” value [3] was 26.33 mmol/L and the CHLORIDE [3] was 99.67 MEQ/L. The CHOLESTEROL [3] was 75.33 mg/dL, the “CREATINE PHOSPHOKINASE” value [3] was 379.67 u/L and the CREATININE [3] was 0.33 mg/dL. The GLUCOSE [3] was 174.33 mg/dL, the “LACTATE DEHYDROGENASE” value [3] was 344 u/L and the LIPASE [3] was 8.33 u/L. The PHOSPHORUS [3] was 12.9 mg/dL, the POTASSIUM [3] was 5.6 MEQ/L and the SODIUM [3] was 142.27 MEQ/L. For the same molecule, the “TOTAL BILIRUBIN” value [3] was 0.2 mg/dL, the “TOTAL PROTEIN” value [3] was 5.87 G/DL and the “URIC ACID” value [3] was 1.57 mg/dL. For the same molecule, the “ABSOLUTE BASOPHIL” value [4] was 0 CELLS/uL, the “ABSOLUTE EOSINOPHIL” value [4] was 110 CELLS/uL and the “ABSOLUTE LYMPHOCYTE” value [4] was 15770.33 CELLS/uL. The “ABSOLUTE MONOCYTE” value [4] was 383.67 CELLS/uL, the “ABSOLUTE SEGMENTED NEUTROPHIL” value [4] was 2702.67 CELLS/uL and the BASOPHIL [4] was 0%. For the same molecule, the EOSINOPHIL [4] was 1%, the “ERYTHROCYTE COUNT” value [4] was 6.37 x10E6/uL and the HEMATOCRIT [4] was 38.77%. The HEMOGLOBIN [4] was 14.5 G/DL, the “LEUKOCYTE COUNT” value [4] was 18.97 x10E3/uL and the LYMPHOCYTE [4] was 83.33%. For the same molecule, the “MEAN CORPUSCULAR HEMOGLOBIN” value [4] was 22.77 pg, the “MEAN CORPUSCULAR HEMOGLOBIN CONCENTRATION” value [4] was 37.43 G/DL and the “MEAN CORPUSCULAR VOLUME” value [4] was 60.83 fL. For the same molecule, the MONOCYTE [4] was 2%, the NEUTROPHIL [4] was 13.67% and the “NUCLEATED RED BLOOD CELLS” value [4] was 0 /100WBC. For the same molecule, the “PLATELET COUNT” value [4] was 1065.33 x10E3/uL, the “ALANINE AMINOTRANSFERASE” value [4] was 53.67 u/L and the ALBUMIN [4] was 4.5 G/DL. The “ALKALINE PHOSPHATASE” value [4] was 245.67 u/L, the “ASPARTATE AMINOTRANSFERASE” value [4] was 109.33 u/L and the “BLOOD UREA NITROGEN” value [4] was 18 mg/dL. For the same molecule, the “CARBON DIOXIDE” value [4] was 27 mmol/L, the CHLORIDE [4] was 101.67 MEQ/L and the CHOLESTEROL [4] was 74.33 mg/dL. For the same molecule, the “CREATINE PHOSPHOKINASE” value [4] was 756 u/L, the CREATININE [4] was 0.12 mg/dL and the GLUCOSE [4] was 155.33 mg/dL. The “LACTATE DEHYDROGENASE” value [4] was 946.67 u/L, the LIPASE [4] was 8.33 u/L and the PHOSPHORUS [4] was 12.47 mg/dL. For the same molecule, the POTASSIUM [4] was 4.95 MEQ/L, the SODIUM [4] was 144.83 MEQ/L and the “TOTAL BILIRUBIN” value [4] was 0.1 mg/dL. The “TOTAL PROTEIN” value [4] was 6.33 G/DL and the “URIC ACID” value [4] was 1.5 mg/dL.
